{
  "source": "patent US20230201313A1",
  "about": "“METHODS OF TREATING LEFT VENTRICLE HYPERTROPHY” (Amgen Inc., priority 2020, published 2023)",
  "key": {"[1]": {"test_system": "PTH", "settings": "Hansen et al. 2012; cited from earlier work"}, "[2]": {"test_system": "FGF23", "settings": "Hansen et al. 2012; cited from earlier work"}, "[3]": {"test_system": "maintenance hemodialysis patients with secondary hyperparathyroidism (SHPT) and LVH", "test": "Single blinded randomized 12-month trial, etelcalcetide vs alfacalcidol: left ventricular mass index (LVMI) by cardiac MRI", "format": "in vivo, human", "settings": "for estimated adjusted mean difference in the change of LVMI: ANCOVA, 1 year vs baseline, etelcalcetide group compared to alfacalcidol group", "excerpt": "For the study, 62 patients were recruited, of which 30 patients were randomized to treatment with alfacalcidol and 32 to treatment with etelcalcetide. During the course of the 12-month study, ten patients dropped out during follow-up. Data for the main outcome (left ventricular mass index, LVMI in g/m^2) was available for the patients at baseline (enrollment) and at the 1-year follow-up, except for three patients as noted in Example 1. FIG. 1A illustrates a flow chart of the study design. Turning now to FIGS. 2A-2B, data from the study is presented. […] Thus, the 10 patients who dropped out during the study are removed from the analysis. FIG. 2A is a boxplot of the unadjusted primary endpoint for the alfacalcidol and the etelcalcetide treatment groups. […] The unadjusted comparison of the primary endpoint by a 2-sample equal variances t-test yields a significant difference in LVMI change between the treatment groups (p=0.007156). Due to the non-normal distribution of the data, a non-parametric 2-sample Wilcoxon test was also performed to confirm the result (p=0.0006661). An analysis adjusted for the stratification of the randomization was conducted using an Analysis of Covariance (ANCOVA) with outcome variable “Change of LVMI” and using the randomization stratification factors (residual kidney function, center of recruitment) as well as the LVMI at baseline as covariates. […] The associated p-value was 0.00809, in accordance with the result of the unadjusted analysis. In another analysis of the data, referred to as in intention-to-treat analysis, all patients who were randomized for the study are included in the data analysis. Thus, for the 10 patients who dropped out during the study all available measurements are used at the time they were taken. Out of those, for the 3 patients without MRI measurements the outcome values are imputed (obtained as mean values from patients of the same medication group with stratification factors identical to the patient with missing data). Final data on the primary study endpoint, difference of LVMI (g/m^2) at 1 year and LVMI at baseline, for the 62 patients who were randomized for the study is shown in FIG. 2B. The unadjusted comparison of the primary endpoint by a 2-sample equal variances t-test yields a significant difference in LVMI change between the treatment groups (p=0.04691). However, due to the distribution of the data the non-parametric Wilcoxon test is deemed more reliable and confirms the results (p=0.006098). […] The associated p-value was 0.031, in accordance with the result of the unadjusted analysis. Study Overview: A single blinded randomized trial of twelve months to test the effects of etelcalcetide compared to alfacalcidol on LVH and cardiac fibrosis in maintenance hemodialysis patients with secondary hyperparathyroidism (SHPT) was conducted. Both treatment regimens were titrated to equally suppress SHPT. Patients treated three times weekly with hemodialysis for between about 3 months and about 3 years and with parathyroid hormone (PTH) levels ≥300 pg/ml and LVH were enrolled. The primary study endpoint was left ventricular mass index (LVMI) determined in g/m^2 at baseline and at 12 months by cardiac MRI (cMRI). […] Due to the strong association of volume overload and LVH, randomization was additionally stratified by residual kidney function and regular body composition monitoring was performed to control patients' volume status. […]"}, "[4]": {"test_system": "FGF23", "test": "Trial secondary endpoint: FGF23 blood levels", "format": "in vivo, human", "settings": "55 individuals, 12-month follow-up, FIGS. 4A-4B, versus alfacalcidol group", "excerpt": "In FIGS. 4A-4B, the data on FGF23 blood levels for the subjects in each treatment group is shown. On average, 8 measurements were available throughout follow-up for each individual.\n(§1) Outcomes measurements: Laboratory analyses: Biochemical data was collected prior to hemodialysis at baseline and periodically (e.g., intact PTH, calcium, phosphate, 25-OH-Vit-D, 1,25-(OH)2-Vit-D every two weeks during the first 10 weeks followed by measurements every 4 weeks; while intact FGF23, s-klotho, proBNP and pre+postdialysis TnT was measured in 8-week-intervals). Additionally, a RAAS fingerprint was conducted before start and at the end of the treatment phase. The RAAS fingerprint is a mass spectrometry-based quantification of angiotensin metabolites. […]\n(§2) Intact PTH, calcium and phosphate were analyzed in serum samples using the Cobas assay (Roche, reference range of PTH: 15-65 pg/mL, calcium: 2.15-2.55 mmol/L, phosphate: 0.81-1.45 mmol/L). Vitamin D was measured using serum samples and a chemiluminescent-immunoassays (Diasorin, reference range of 1.25-(OH)2-VitD: 19.9-79.3 pg/mL; 25-OH-Vit-D 75-250 nmol/L). Ionized calcium was measured during every dialysis session (using blood gas analysis (ABL 800 Flex, Drott)). Intact FGF23 was analyzed in plasma samples using chemiluminescent—Immunoassays (DiaSorin, reference range 23.2-95.4 pg/mL). […]"}, "[5]": {"test_system": "calcium", "test": "Trial secondary endpoint: calcium blood levels", "format": "in vivo, human", "settings": "55 individuals, 12-month follow-up, FIGS. 5A-5B, versus alfacalcidol group", "excerpt": "In FIGS. 5A-5B, the calcium blood levels for the subjects in each treatment group is shown. On average, 17 measurements were available throughout follow-up for each individual.\nas §1, §2"}, "[6]": {"test_system": "PTH", "settings": "single intravenous dose, patients on hemodialysis; cited from earlier work"}, "[7]": {"test_system": "FGF23", "settings": "at 24 hours after a single 10 mg dose; cited from earlier work"}, "[8]": {"test_system": "1.25(OH)2 vitamin D", "settings": "after a single 10 mg dose; cited from earlier work"}},
  "note": "“Also recorded” adds a separate entry of the source.",
  "data": [
    {"compound": "C=C1/C(=C\\C=C2/CCC[C@]3(C)[C@@H]([C@H](C)CCCC(C)C)CC[C@@H]23)C[C@@H](O)C[C@@H]1O", "note": "[Alfacalcidol]", "values": [
      {"measurement": "decrease of PTH levels", "setting": "[1]", "value": "≥ 30", "unit": "%"},
      {"measurement": "increase of FGF23 levels", "setting": "[2]", "value": "threefold"}
    ]},
    {"compound": "CC(=O)N[C@H](CSSC[C@H](N)C(=O)O)C(=O)N[C@H](C)C(=O)N[C@H](CCCNC(=N)N)C(=O)N[C@H](CCCNC(=N)N)C(=O)N[C@H](CCCNC(=N)N)C(=O)N[C@H](C)C(=O)N[C@H](CCCNC(=N)N)C(N)=O", "note": "[etelcalcetide, (2R)-3-[[(2S)-2-acetamido-3-[[(2R)-1-[[(2R) [[(2R)-1-[[(2R)-1-[[(2R)-1-[[(2R)-1-amino-5-(diaminomethydeneamino)-1-oxopentanyl]amino]-1-oxopropan-2-yl]amino]-5-(diaminomethydeneamino)-1-oxopentan-2-yl]amino]-5-(diaminomethydeneamino)-1-oxopentan-2-yl]amino]-5-(diaminomethydeneamino)-1-oxopentan-2-yl]amino]-1-oxopropan-2-yl]amino]-3-oxopropyl]disulfanyl]-2-aminopropanoic acid]", "values": [
      {"measurement": "Prevention of LVH progression", "setting": "[3]; dialysis patients with sHPT, compared to alfacalcidol", "value": "6-8%"},
      {"measurement": "LVMI progression", "setting": "[3]; dialysis patients with sHPT, compared to treatment with alfacalcidol", "value": "prevented LVMI progression"},
      {"measurement": "estimated adjusted mean difference in the change of LVMI", "setting": "[3]; intention-to-treat analysis (62 randomized patients), p=0.031", "value": "−6.2 (95% confidence interval −11.72 to −0.71) g/m^2"},
      {"measurement": "effect on LVH and cardiac fibrosis", "setting": "[3]; patients under maintenance hemodialysis, through a suppression of FGF23", "value": "effectively ameliorates LVH and cardiac fibrosis"},
      {"measurement": "estimated adjusted mean difference in the change of LVMI", "setting": "[3]; per-protocol analysis (52 patients who completed), p=0.00809", "value": "−8.2 (95% confidence interval −13.99 to −2.39) g/m^2"},
      {"measurement": "FGF23 blood levels, overall measurements and longitudinal behavior", "setting": "[4]", "value": "lower values which were decreasing over time; also recorded: decreased FGF23 levels"},
      {"measurement": "calcium blood levels, overall measurements and longitudinal behavior", "setting": "[5]", "value": "lower values which were decreasing over time"},
      {"measurement": "duration of lowering of serum levels of PTH", "setting": "[6]", "value": "up to 72 hours"},
      {"measurement": "decrease of FGF23 levels", "setting": "[7]", "value": "over 30%"},
      {"measurement": "effect on 1.25(OH)2 vitamin D levels", "setting": "[8]", "value": "little or no effect"}
    ]}
  ]
}
